In publication PMC8701324, “Structural Insight into the Mechanism of PALB2 Interaction with MRG15” (Genes, 2021):
Where no end group is shown, it is not given here. The star is where a group is joined. 6xHis = N-terminal hexahistidine tag, N[C@@H](Cc1c[nH]cn1)C(=O)N[C@@H](Cc1c[nH]cn1)C(=O)N[C@@H](Cc1c[nH]cn1)C(=O)N[C@@H](Cc1c[nH]cn1)C(=O)N[C@@H](Cc1c[nH]cn1)C(=O)N[C@@H](Cc1c[nH]cn1)C(=O)*

Legend:
[1] = biological target: T1, MRG15^155−323 (MRG domain) (Homo sapiens, UniProt Q9UBU8); experiment: Fluorescence anisotropy binding of FAM-PALB2 peptide
T1 construct: The MRG15 MRG domain, encompassing amino acids 155–323, was cloned into the pET28b^+-based pSMT3 vector; 6xHis-SUMO (N, cleaved yes); made in house; host or cells: E. coli BL21*
T1 sequence (Q9UBU8 194-362): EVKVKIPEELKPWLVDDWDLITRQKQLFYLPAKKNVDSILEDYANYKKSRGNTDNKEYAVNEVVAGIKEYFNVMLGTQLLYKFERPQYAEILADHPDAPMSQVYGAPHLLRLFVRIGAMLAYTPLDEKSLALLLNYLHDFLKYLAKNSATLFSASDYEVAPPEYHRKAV
Method: Fluorescence anisotropy binding and competition assays were performed using black 384-well plates (Corning Inc., Corning, NY, USA) and a Synergy Neo2 plate reader (BioTek, Winooski, VT, USA). Binding assays were conducted by serially diluting the MRG15 fragment from 10 µM to 0.6 nM. A 40 µL solution of 20 µM MRG was serially diluted in 20 µL of 25 mM HEPES pH8.0, 1 mM TCEP, 10% DMSO, and 200 mM NaCl. A total of 20 µL of a 20 nM FAM-PALB2^597−630 solution was then added to each well for a final reaction volume of 40 µL and a final PALB2 concentration of 10 nM. The plate was shaken for 2 min and incubated for 15 min. Fluorescence anisotropy was measured with 485/20 nm excitation and 528/20 nm emission using Gen5.0 (BioTek) software. Kd was calculated with GraphPad Prism software by fitting the data with a non-linear regression analysis using a standard four-parameter logistic equation to identify Kd. […] R^2 is determined by the Prism software by computing the sum of the squares of the distances of the points from the best-fit curve determined by a nonlinear regression model.
Proteins interact with the MRG domain through a conserved FxLP motif. […] The binding affinity of this peptide to MRG15 was measured using the polarization anisotropy method with fluorescein-labeled PALB2^597−630 peptide (FAM-PALB2, Genscript Biotech, Piscataway, NJ, USA). […]

[2] = tested on: MRG15^155−323; experiment: Ni-NTA pull-down of MRG15 by 6xHis-tagged PALB2 peptides; assay type: binding; settings: preliminary qualitative experiment; Ni-NTA agarose, SDS-PAGE
Method: Ni-NTA beads (200 µL of 50% slurry) were equilibrated with Buffer B (25 mM HEPES pH 7.5, 10% glycerol, 2 mM CHAPS and 300 mM NaCl). 1 mL of PALB2 peptide at concentration 0.1 mg·mL^−1 was bound to Ni-NTA beads, and excess peptides were washed off with Buffer B (1 mL). A total of 1 mL of 0.1 mg·mL^−1 MRG15^155−323 was added to the beads and incubated for 30 min. Beads were washed 3 times with Buffer B with 20 mM imidazole. Protein complexes were eluted with Buffer B with 250 mM imidazole. MRG15^155−323 alone, mixed with Ni-NTA beads without any peptide bound, was used as control to eliminate non-specific binding. Samples were analyzed by SDS-PAGE.
Proteins interact with the MRG domain through a conserved FxLP motif. All known structures of MRG complexes reveal significant contributions to the binding of extended regions up- and downstream of the FxLP motif. Flanking regions have low sequence and structural conservation, making it challenging to predict which regions of PALB2 around the FQLP sequence motif (amino acids 612–615) are involved in the interaction. […] The binding affinity of this peptide to MRG15 was measured using the polarization anisotropy method with fluorescein-labeled PALB2^597−630 peptide (FAM-PALB2, Genscript Biotech, Piscataway, NJ, USA). […]

[3] = biological target: T2, MRG15 (MRG domain) (Homo sapiens, UniProt Q9UBU8); experiment: Fluorescence anisotropy competition assay: displacement of WT FAM-PALB2; assay type: binding; settings: competition with WT FAM-PALB2, relative to WT
T2 construct: The MRG15 MRG domain, encompassing amino acids 155–323, was cloned into the pET28b^+-based pSMT3 vector; 6xHis-SUMO (N, cleaved yes); made in house; host or cells: E. coli BL21*
T2 sequence (Q9UBU8 194-362): as above
Method: For competition assays, mutant PALB2^597−630 peptides (Genscript Biotech, Piscataway, NJ, USA) were dissolved in DMSO and serially diluted from 10 µM to 0.6 nM in 20 µL of 25 mM HEPES pH 8.0, 1 mM TCEP, 10% DMSO, and 200 mM NaCl. A total of 40 nM MRG15 was mixed with 10 nM PALB2-FAM and incubated for 15 min at room temperature (RT). 20 µL of the MRG15 with FAM-PALB2 was then added to each well, resulting in a final concentration of […]. The total reaction volume was 40 µL. The plate was then shaken for 2 min and incubated for 15 min before the fluorescence anisotropy was measured as above. The inhibition constant Ki was calculated similarly to Kd (above).
Mutations of several residues in the MRG-binding region of PALB2 were found in breast cancer patients, including Asp616His, Pro615Ser and Pro621Thr mutations (Figure 5A,B). We analyzed the effect of these mutations on PALB2 interaction with MRG by a competition assay (Figure 5C,D). An MRG complex with 10 nM WT PALB2 peptide was formed, and the comparative affinity of mutants (Ki) was assayed by the dissociation rate of FAM-PALB2 from MRG15 upon titration by a mutant peptide. In addition, the contribution of core hydrophobic amino acids was assayed by alanine substitution. None of the peptides with a core hydrophobic amino acid substitution were able to compete with wtPALB2 binding. […] Substitution of Asp616 with histidine reduced the affinity by a factor of 2. […] Substitution of this proline in the middle of an α-helical turn may increase flexibility and result in a tighter binding of αH2 to the hydrophobic pocket of MRG.

597 630: PALB2 fragment encompassing amino acids 597–630 with the N-terminal 6xHis tag; crystallized with MRG15 (PDB ID 7S4A) (6xHis-MLSLKQLLSFLSITDFQLPDEDFGPLKLEKVKSC)
binding affinity to MRG domain [1]: nanomolar affinity | complex formation with MRG15 in pull-down [2]: sufficient for the formation of a stable complex

MLSLKQLLSFLSITDFQLPDEDFGTLKLEKVKSC [P621T]
effect on binding affinity [3]: increased the binding affinity

MLSLKQLLSFLSITDFQLPHEDFGPLKLEKVKSC [D616H]
factor by which affinity is reduced vs WT ([3]; 'by a factor of'): 2

MLSLKQLLSFLSITDFQLSDEDFGPLKLEKVKSC [P615S]
reduction in binding affinity vs WT [3]: 5 fold
